What is called Kd is the constant that tells how readily two partners part at equilibrium.

Common to all, as to assay type: binding
The target of test [1] is Musashi-2 (MSI2) (Homo sapiens, UniProt Q96DH6). As to the kind of experiment: MST with GFP-tagged protein in HEK293FT lysate; CETSA in HCT116 cells.
Test [2] has as its target T1, LIN28A (Homo sapiens, UniProt Q9H9Z2).
T1 construct: GFP-tagged, HEK293FT lysate
T1 sequence (Q9H9Z2 2-209): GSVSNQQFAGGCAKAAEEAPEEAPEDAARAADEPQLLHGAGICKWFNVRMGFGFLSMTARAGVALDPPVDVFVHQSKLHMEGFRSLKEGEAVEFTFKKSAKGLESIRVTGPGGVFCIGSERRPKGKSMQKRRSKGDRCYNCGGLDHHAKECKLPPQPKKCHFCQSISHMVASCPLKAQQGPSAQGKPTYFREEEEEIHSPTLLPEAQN
In words: MST with GFP-tagged protein in cell lysate.

For test [3], the target named is T2, HUR (Homo sapiens, UniProt Q15717).
T2 construct: gene ELAVL1; GFP-tagged, HEK293FT lysate
T2 sequence (Q15717 2-326): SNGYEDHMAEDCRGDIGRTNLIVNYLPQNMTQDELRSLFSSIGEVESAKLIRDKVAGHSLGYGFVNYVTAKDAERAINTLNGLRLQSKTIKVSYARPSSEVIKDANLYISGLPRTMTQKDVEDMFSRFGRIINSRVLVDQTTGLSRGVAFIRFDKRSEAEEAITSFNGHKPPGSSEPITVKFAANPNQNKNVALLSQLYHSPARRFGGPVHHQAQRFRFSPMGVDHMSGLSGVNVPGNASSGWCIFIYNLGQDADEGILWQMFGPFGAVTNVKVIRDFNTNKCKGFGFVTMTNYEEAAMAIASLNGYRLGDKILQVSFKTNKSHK
In words: MST with GFP-tagged protein in cell lysate.

Chain of Musashi-2 (MSI2) (Q96DH6 whole entry): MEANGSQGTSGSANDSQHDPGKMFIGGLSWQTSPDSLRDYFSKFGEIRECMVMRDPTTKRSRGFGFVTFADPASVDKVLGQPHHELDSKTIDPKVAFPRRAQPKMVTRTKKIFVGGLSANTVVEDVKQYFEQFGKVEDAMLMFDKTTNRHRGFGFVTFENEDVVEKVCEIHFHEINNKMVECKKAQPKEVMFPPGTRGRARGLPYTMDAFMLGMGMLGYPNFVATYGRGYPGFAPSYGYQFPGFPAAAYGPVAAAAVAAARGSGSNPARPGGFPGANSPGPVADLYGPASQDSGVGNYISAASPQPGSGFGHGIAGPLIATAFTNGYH

With `COc1cc2c(cc1OC)-c1cc3ccc(OC)c(OC)c3c[n+]1CC2` [palmatine], the figures for the Kd in test [1], in test [2] and in test [3] were 17 µM, 49.6 µM and 33.5 µM, respectively.
